Assay results from patent publication US10485769B2, “Cholesteryl ester transfer protein (CETP) inhibition in the treatment of cancer” (KING ABDULLAH UNIVERSITY OF SCIENCE AND TECHNOLOGY, priority 2015, dated 2019).

Legend:
MCF-7 cells = assay: Mitochondrial Outer Membrane Potential (MOMP) by flow cytometry; type: cell-based, human; conditions: 10 μM PL, AP; 100 mM H2O2 positive control; versus untreated cells
Procedure: FIG. 2: Mode of induction in MCF-7 cells after treatment with AP and PL was determined by measuring changes in MOMP and levels of apoptosis-associated proteins. The cells were incubated with 10 μM AP and PL for different time intervals to capture the timeline of apoptosis induction in MCF-7 cells. The changes in MOMP were measured using flow cytometry after treating MCF-7 cells with PL and AP for 1, 2 and 4 h (A). The alteration in expression of several apoptosis-associated proteins were determined using western blotting after incubating MCF-7 cells for 1, 2, 4, 6 h with PL (C, E) and AP (D. F).
The changes in Mitochondrial Outer Membrane Potential (MOMP) and proteins involved in the apoptotic cascade were assessed (FIG. 2).

MCF-7 CETP siRNA cells = assay: MMP, caspase-3/7 activity and apoptosis in CETP knockdown MCF-7 cells; type: cell-based, human; conditions: 25 μM tamoxifen, 24 h, CETP knockout cells
Procedure: FIG. 10: The effect of CETP mRNA silencing on MMP (A), Capase-3/7 activity (B) and apoptosis in MCF-7 (C) and BJ (D) untransfected, cntl siRNA and CETP knockout cells after treatment with 10 μM PL or AP. Values represent the means±SD of three independent experiments.
FIG. 12: The effect of CETP mRNA knockout on Capase-3/7 activity (A) and apoptosis (B) in MCF-7 cntl siRNA and CETP knockout cells after treatment with 25 μM tamoxifen for 24 h. Values represent the means±SD of three independent experiments.
Since, as shown above, CETP is required for optimal growth of MCF-7 cells, we further hypothesized that CETP may help cancer cell to resist/escape apoptotic signals thus preventing cell death. Several apoptotic markers such as MOMP, phosphatidylserine exposure and caspase-3/7 activity were tested to establish a link between CETP and apoptosis.
Next, we intended to see if CETP silencing increased sensitivity of MCF-7 cells to apoptosis.
To test if effect of CETP knockout on apoptosis in MCF-7 is limited to AP, we treated the CETP knockout MCF-7 cells with tamoxifen (a known first line drug for breast cancer treatment). […] This observation was not limited to PL and AP as similar observations were made in CETP knockdown cells treated with tamoxifen (FIG. 12).

Compound	MOMP, fluorescence in the FL-2 channel (MCF-7 cells)	caspase-3/7 activity (MCF-7 CETP siRNA cells)
OO [H2O2]	lower fluorescent values	–
CC/C(=C(\c1ccccc1)c1ccc(OCCN(C)C)cc1)c1ccccc1 [tamoxifen]	–	significant increase
